The compounds below were run against T1, human GABA A α5β3γ2 receptor (Homo sapiens, UniProt P18507+P31644) (assay: [3H]flumazenil competition binding to HEK293 cells expressing human GABA A receptors). Conditions: competition for [3H]flumazenil (0.5 nM for α5); HEK293 cells expressing human (transiently transfected) receptors; means of two determinations; read-out: hKi GABA Aα5.
T1 construct: expressed in transfected cells; host or cells: HEK293 (transiently transfected), membranes
Protocol: The affinity of compounds at GABA A receptor subtypes was measured by competition for [^3H]flumazenil (85 Ci/mmol; Roche) binding to HEK293 cells expressing rat (stably transfected) or human (transiently transfected) receptors of composition α1β3γ2, α2β3γ2, α3β3γ2 and α5β3γ2.
Cell pellets were suspended in Krebs-tris buffer (4.8 mM KCl, 1.2 mM CaCl2, 1.2 mM MgCl2, 120 mM NaCl, 15 mM Tris; pH 7.5; binding assay buffer), homogenized by polytron for ca. 20 sec on ice and centrifuged for 60 min at 4° C. (50000 g; Sorvall, rotor: SM24=20000 rpm). The cell pellets were resuspended in Krebs-tris buffer and homogenized by polytron for ca. 15 sec on ice. Protein was measured (Bradford method, Bio-Rad) and aliquots of 1 mL were prepared and stored at −80° C.
Radioligand binding assays were carried out in a volume of […] (96-well plates) which contained […] of cell membranes, [^3H]flumazenil at a concentration of 1 nM for α1, α2, α3 subunits and 0.5 nM for α5 subunits and the test compound in the range of […]. Nonspecific binding was defined by 10^−5 M diazepam and typically represented less than 5% of the total binding. Assays were incubated to equilibrium for 1 hour at 4° C. and harvested onto GF/C uni-filters (Packard) by filtration using a Packard harvester and washing with ice-cold wash buffer (50 mM Tris; pH 7.5). After drying, filter-retained radioactivity was detected by liquid scintillation counting. Ki values were calculated using Excel-Fit (Microsoft) and are the means of two determinations.
Representative test results, obtained by the above described assay measuring binding affinity to HEK293 cells expressing human (h) receptors, are shown in table 1 below.

Row | Compound | Ki
1 | CCCCc1noc(C)c1COc1ccc(C(=O)N2CCS(=O)(=O)CC2)cn1 [Example 18, [6-((3-Butyl-5-methyl-isoxazol-4-yl)methoxy)-pyridin-3-yl]-(1,1-dioxo-1,6-thiomorpholin-4-yl)-methanone] | 21.1 nM
2 | CCCCc1noc(C)c1COc1ccc(C(=O)N[C@@H](C)C(F)(F)F)cn1 [Example 19, 6-((3-Butyl-5-methyl-isoxazol-4-yl)methoxy)-N—((S)-2,2,2-trifluoro-1-methyl-ethyl)-nicotinamide] | 8.4 nM
3 | CCCCc1noc(C)c1COc1ccc(C(=O)N[C@@H](C)C(F)(F)F)cn1 [Example 20, 6-((3-Butyl-5-methyl-isoxazol-4-yl)methoxy)-N—((S)-2,2,2-trifluoro-1-methyl-ethyl)-nicotinamide] | 7.5 nM
4 | CCCCc1noc(C)c1COc1ccc(C(=O)NC2(C)CC2)cn1 [Example 21, 6-((3-Butyl-5-methyl-isoxazol-4-yl)methoxy)-N-(1-methyl-cyclopropyl)-nicotinamide] | 11.5 nM
5 | CCCCc1noc(C)c1COc1ccc(C(=O)N2CCC2)cn1 [Example 22, Azetidin-1-yl-[6-((3-butyl-5-methyl-isoxazol-4-yl)methoxy)-pyridin-3-yl]-methanone] | 34.5 nM
6 | CCCCc1noc(C)c1COc1ccc(C(=O)Nc2cnn(C)c2)cn1 [Example 23, 6-((3-Butyl-5-methyl-isoxazol-4-yl)methoxy)-N-(1-methyl-1H-pyrazol-4-yl)-nicotinamide] | 2.2 nM
7 | CCCCc1noc(C)c1COc1ccc(C(=O)Nc2ccn(C)n2)cn1 [Example 24, 6-((3-Butyl-5-methyl-isoxazol-4-yl)methoxy)-N-(1-methyl-1H-pyrazol-3-yl)-nicotinamide] | 10.7 nM
8 | CCCCc1nocc1COc1ccc(C(=O)NC(C)C)cn1 [Example 25, 6-((3-Butyl-isoxazol-4-yl)methoxy)-N-isopropyl-nicotinamide] | 41.1 nM
9 | CCCCc1nocc1COc1ccc(C(=O)NCC(F)(F)F)cn1 [Example 26, 6-((3-Butyl-isoxazol-4-yl)methoxy)-N-(2,2,2-trifluoro-ethyl)-nicotinamide] | 44.9 nM
10 | CCCCc1nocc1COc1ccc(C(=O)NC2CCOCC2)cn1 [Example 27, 6-((3-Butyl-isoxazol-4-yl)methoxy)-N-(tetrahydro-pyran-4-yl)-nicotinamide] | 51.9 nM
11 | CCCCc1nocc1COc1ccc(C(=O)N[C@@H](C)CO)cn1 [Example 28, 6-((3-Butyl-isoxazol-4-yl)methoxy)-N—((S)-2-hydroxy-1-methyl-ethyl)-nicotinamide] | 36.1 nM
12 | CCCC(C)c1noc(C)c1COc1ccc(C(=O)NC(C)C)cn1 (stereo not drawn) [Example 29, N-Isopropyl-6-[(5-methyl-3-(1-methyl-butyl)-isoxazol-4-yl)methoxyl]-nicotinamide] | 70.9 nM
13 | Cc1onc(C2CCCC2)c1COc1ccc(C(=O)NC(C)C)cn1 [Example 30, 6-((3-Cyclopentyl-5-methyl-isoxazol-4-yl)methoxy)-N-isopropyl-nicotinamide] | 37.6 nM
14 | Cc1onc(C2CCCCC2)c1COc1ccc(C(=O)NC(C)C)cn1 [Example 31, 6-((3-Cyclohexyl-5-methyl-isoxazol-4-yl)methoxy)-N-isopropyl-nicotinamide] | 4.3 nM
15 | Cc1onc(C2CCCCC2)c1COc1ccc(C(=O)NC2CC2)cn1 [Example 32, 6-((3-Cyclohexyl-5-methyl-isoxazol-4-yl)methoxy)-N-cyclopropyl-nicotinamide] | 4.7 nM
16 | Cc1onc(C2CCCCC2)c1COc1ccc(C(=O)NC2CCOCC2)cn1 [Example 33, 6-((3-Cyclohexyl-5-methyl-isoxazol-4-yl)methoxy)-N-(tetrahydro-pyran-4-yl)-nicotinamide] | 5.2 nM
17 | Cc1onc(C2CCCCC2)c1COc1ccc(C(=O)NCCO)cn1 [Example 34, 6-((3-Cyclohexyl-5-methyl-isoxazol-4-yl)methoxy)-N-(2-hydroxy-ethyl)-nicotinamide] | 5.8 nM
18 | Cc1onc(C2CCCCC2)c1COc1ccc(C(=O)NC(C)(C)CO)cn1 [Example 35, 6-((3-Cyclohexyl-5-methyl-isoxazol-4-yl)methoxy)-N-(2-hydroxy-1,1-dimethyl-ethyl)-nicotinamide] | 20.3 nM
19 | Cc1onc(C2CCCCC2)c1COc1ccc(C(=O)NC(C)CO)cn1 (stereo not drawn) [Example 36, 6-((3-Cyclohexyl-5-methyl-isoxazol-4-yl)methoxy)-N-(2-hydroxy-1-methyl-ethyl)-nicotinamide] | 3.7 nM
20 | Cc1onc(C2CCOCC2)c1COc1ccc(C(=O)NC(C)C)cn1 [Example 37, N-Isopropyl-6-[(5-methyl-3-(tetrahydro-pyran-4-yl)-isoxazol-4-yl)methoxy]-nicotinamide] | 21.9 nM
21 | Cc1onc(C2CCOCC2)c1COc1ccc(C(=O)N[C@@H](C)CO)cn1 [Example 38, N—((S)-2-Hydroxy-1-methyl-ethyl)-6-[(5-methyl-3-(tetrahydro-pyran-4-yl)-isoxazol-4-yl)methoxy]-nicotinamide] | 41.6 nM
22 | Cc1onc(OCC(C)C)c1COc1ccc(C(=O)NC(C)C)cn1 [Example 39, 6-((3-Isobutoxy-5-methyl-isoxazol-4-yl)methoxy)-N-isopropyl-nicotinamide] | 4.7 nM
23 | Cc1onc(N2CCCC2)c1COc1ccc(C(=O)NC(C)C)cn1 [Example 40, N-Isopropyl-6-((5-methyl-3-pyrrolidin-1-yl-isoxazol-4-yl)methoxy)-nicotinamide] | 4 nM
24 | Cc1onc(N2CCCC2)c1COc1ccc(C(=O)NC2CCOCC2)cn1 [Example 41, 6-((5-methyl-3-pyrrolidin-1-yl-isoxazol-4-yl)methoxy)-N-(tetrahydro-pyran-4-yl)-nicotinamide] | 3.9 nM
25 | CCCCc1noc(C)c1CNc1ccc(C(=O)NC(C)C)cn1 [Example 42, 6-[((3-Butyl-5-methyl-isoxazol-4-yl)methyl)-amino]-N-isopropyl-nicotinamide] | 57.9 nM
26 | CCCCc1noc(C)c1CNc1ccc(C(=O)NC(C)CO)cn1 (stereo not drawn) [Example 43, 6-[((3-Butyl-5-methyl-isoxazol-4-yl)methyl)-amino]-N-(2-hydroxy-1-methyl-ethyl)-nicotinamide] | 77 nM
27 | CCCCc1noc(C)c1CNc1ccc(C(=O)NC2CCOCC2)cn1 [Example 44, 6-[((3-Butyl-5-methyl-isoxazol-4-yl)methyl)-amino]-N-(tetrahydro-pyran-4-yl)-nicotinamide] | 67.6 nM

Source: patent US8357703B2, “Pyridines” (Hoffmann-La Roche Inc., priority 2009, dated 2013)
